Usually EC50 stands for the concentration needed to bring the measured effect to its halfway point.

Some results are limits rather than exact numbers.

Sequence of ΔF508-CFTR (P13569 other isoform, or with tags, fused parts or gaps del F508-F508): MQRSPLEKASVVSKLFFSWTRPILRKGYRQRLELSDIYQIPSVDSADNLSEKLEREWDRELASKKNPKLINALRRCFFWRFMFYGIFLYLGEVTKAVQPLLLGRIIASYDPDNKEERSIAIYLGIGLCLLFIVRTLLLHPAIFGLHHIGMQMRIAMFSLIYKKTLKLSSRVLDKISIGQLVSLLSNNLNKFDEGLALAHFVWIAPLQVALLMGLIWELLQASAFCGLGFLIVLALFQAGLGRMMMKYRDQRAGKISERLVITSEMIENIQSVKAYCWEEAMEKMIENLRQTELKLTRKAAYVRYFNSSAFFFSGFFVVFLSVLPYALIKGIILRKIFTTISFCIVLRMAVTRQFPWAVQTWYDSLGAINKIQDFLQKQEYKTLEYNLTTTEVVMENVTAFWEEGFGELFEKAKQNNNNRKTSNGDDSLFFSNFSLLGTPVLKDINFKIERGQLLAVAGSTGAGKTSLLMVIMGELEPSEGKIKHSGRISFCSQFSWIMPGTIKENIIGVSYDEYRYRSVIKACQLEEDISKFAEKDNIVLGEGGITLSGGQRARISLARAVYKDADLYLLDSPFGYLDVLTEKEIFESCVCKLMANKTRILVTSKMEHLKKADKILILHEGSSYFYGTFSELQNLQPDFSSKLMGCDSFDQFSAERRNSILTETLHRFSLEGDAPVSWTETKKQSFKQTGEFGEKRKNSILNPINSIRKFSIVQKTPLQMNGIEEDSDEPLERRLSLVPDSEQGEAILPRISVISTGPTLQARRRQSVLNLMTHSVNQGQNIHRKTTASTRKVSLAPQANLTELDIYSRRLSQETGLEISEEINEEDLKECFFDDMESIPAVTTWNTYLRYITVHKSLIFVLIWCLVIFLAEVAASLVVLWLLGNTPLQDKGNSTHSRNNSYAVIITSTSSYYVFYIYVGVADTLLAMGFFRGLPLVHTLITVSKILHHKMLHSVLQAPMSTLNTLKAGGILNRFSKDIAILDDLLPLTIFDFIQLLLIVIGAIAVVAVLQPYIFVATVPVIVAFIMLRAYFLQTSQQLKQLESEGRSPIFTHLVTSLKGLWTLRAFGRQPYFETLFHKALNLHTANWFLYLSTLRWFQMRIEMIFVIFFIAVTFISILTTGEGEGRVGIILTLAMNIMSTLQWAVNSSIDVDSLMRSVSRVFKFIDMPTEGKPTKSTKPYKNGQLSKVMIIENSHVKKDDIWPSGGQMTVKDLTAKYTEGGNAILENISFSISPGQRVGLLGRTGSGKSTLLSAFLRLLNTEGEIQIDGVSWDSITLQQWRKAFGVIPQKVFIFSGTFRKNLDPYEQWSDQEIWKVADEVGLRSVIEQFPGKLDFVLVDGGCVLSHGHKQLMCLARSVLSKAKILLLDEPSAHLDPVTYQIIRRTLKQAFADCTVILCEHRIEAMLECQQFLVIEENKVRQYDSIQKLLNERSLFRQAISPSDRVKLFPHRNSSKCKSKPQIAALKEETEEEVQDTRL

For one test, the target named is ΔF508-CFTR (Homo sapiens (Human), UniProt P13569, DEL508-508). As to the kind of experiment: CFTR potentiator assays (membrane potential, IonWorks Quattro, Ussing chamber ion transport); patent does not say which gave the EC50. The settings on record: Table 1, representative compounds; data measurements described above; read-out: EC50. The class given is cell-based. An excerpt:
CFTR activity can be quantified by measuring the transmembrane potential. The means for measuring the transmembrane potential in a biological system can employ a number of methods including electrophysiological and optical fluorescence-based membrane potential assays.
The optical membrane potential assay utilises a negatively charged potentiometric dye, such as the FLIPR membrane potential dye (FMP) (see Baxter D F, Kirk M, Garcia A F, Raimondi A, Holmqvist M H, Flint K K, Bojanic D, Distefano P S, Curtis R, Xie Y. ‘A novel membrane potential-sensitive fluorescent dye improves cell-based assays for ion channels.’ J Biomol Screen. 2002 February; 7(1):79-85) which when extracellular is bound to a quenching agent. Upon cellular depolarisation the negatively charged dye redistributes to the intracellular compartment, unbinding from the membrane impermeant quench agent, yielding an increase in fluorescence. This change in fluorescence is proportional to the change in transmembrane potential which can result from the activity of CFTR. The changes in fluorescence can be monitored in real time by an appropriately equipped fluorescence detector such as the FLIPR (fluorometric imaging plate reader) in 96 or 384-well microtitre plates.
Chinese hamster ovary (CHO) cells stably expressing the ΔF508-CFTR channel were used for membrane potential experiments. Cells were maintained at 37° C. in 5% v/v CO2 at 100% humidity in Modified Eagles medium (MEM) supplemented with 8% v/v foetal calf serum, 100 µg/ml methotrexate and 100 U/ml penicillin/streptomycin. Cells were grown in 225 cm^2 tissue culture flasks. For membrane potential assays cells were seeded into 96 well plates at 40,000 cells per well, allowed to adhere and then maintained at 26° C. for 48 h to facilitate channel insertion.
The membrane potential screening assay utilised a low chloride ion containing extracellular solution (˜5 mM) combined with a double addition protocol. The first addition was of buffer with or without test compound followed 5 minutes later by an addition of forskolin (1-20 μM)—this protocol favours maximum chloride efflux in response to ΔF508-CFTR activation. The ΔF508-CFTR mediated chloride ion efflux leads to a membrane depolarisation which is optically monitored by the FMP dye.
Low chloride extracellular (mM): 120 Na-gluconate, 1.2 CaCl2, 3.3 KH2PO4, 0.8 K2HPO4, 1.2 MgCl2, 10.0 D-glucose, 20.0 HEPES, pH 7.4 with NaOH FMP dye: made up as per manufacturers' instructions in low chloride extracellular solution detailed above, at 10× final concentration, and stored as 1 mL aliquots at −20° C.
CFTR activity can also be quantified electrophysiologically using the whole-cell configuration of the patch clamp technique (Hamill et al Pflugers Acrhive 1981). This assay directly measures the currents associated with chloride flow through CFTR channels whilst either maintaining or adjusting the transmembrane voltage. This assay can use either single glass micropipettes or parallel planar arrays to measure CFTR activity from native or recombinant cell systems. Currents measured using parallel planar arrays can be quantified using an appropriately equipped instrument such as the IonWorks Quattro (Molecular Devices) or the Qpatch (Sophion). The Quattro system can measure CFTR currents from either a single cell per recording well (HT configuration) or alternatively from a population of 64 cells per well (Population Patch Clamp PPC) (Finkel A, Wittel A, Yang N, Handran S, Hughes J, Costantin J. ‘Population patch clamp improves data consistency and success rates in the measurement of ionic currents.’ J Biomol Screen. 2006 August; 11(5):488-96).
Chinese hamster ovary (CHO) cells stably expressing the ΔF508-CFTR channel were used for IonWorks Quattro experiments. […]
(Patch clamp records ionic current or voltage across a cell membrane.)
For the compound `CC(O)(CNC(=O)c1nc(-c2ccc(Cl)cc2Cl)c(C(F)(F)F)cc1N)C(F)(F)F` (single isomer, unassigned) [Example 9, 3-Amino-6-(2,4-dichloro-phenyl)-5-trifluoromethyl-pyridine-2-carboxylic acid (3,3,3-trifluoro-2-hydroxy-2-methyl-propyl)-amide], the EC50 was 0.09 µM.

On to `CC(O)(CNC(=O)c1nc(-c2ccc(Cl)cc2Cl)c(C(F)(F)F)cc1N)C(F)(F)F` (single isomer, unassigned) [Example 10, 3-Amino-6-(2,4-dichloro-phenyl)-5-trifluoromethyl-pyridine-2-carboxylic acid (3,3,3-trifluoro-2-hydroxy-2-methyl-propyl)-amide], for which the EC50 was 0.112 µM.

Regarding `COc1nc(C(=O)NC[C@@](C)(O)C(F)(F)F)c(N)cc1C(F)(F)F` [Example 6, 3-Amino-6-methoxy-5-trifluoromethyl-pyridine-2-carboxylic acid ((R)-3,3,3-trifluoro-2-hydroxy-2-methyl-propyl)-amide], the EC50 was determined as 0.426 µM.

As for `COc1nc(C(=O)NC[C@](C)(O)C(F)(F)F)c(N)cc1C(F)(F)F` [Example 5, 3-Amino-6-methoxy-5-trifluoromethyl-pyridine-2-carboxylic acid ((S)-3,3,3-trifluoro-2-hydroxy-2-methyl-propyl)-amide], the EC50 stood at 0.05 µM.

The test is the same for the next values; noted with them: data measurements described above; read-out: CFTR EC50.
As for `Nc1cc(C(F)(F)F)c(Br)nc1C(=O)NCC(=O)O` [2-(3-amino-6-bromo-5-(trifluoromethyl)picolinamido)acetic acid], the EC50 is above 5 µM.

For the compound `CN1CCN[C@H](CNC(=O)c2nc(Br)c(C(F)(F)F)nc2N)C1` [(R)-3-amino-6-bromo-N-((4-methylpiperazin-2-yl)methyl)-5-(trifluoromethyl)pyrazine-2-carboxamide], the EC50 was above 5 µM.

For `CN1CCN(C(=O)c2nc(Br)c(C(F)(F)F)nc2N)CC1` [(3-amino-6-bromo-5-(trifluoromethyl)pyrazin-2-yl)(4-methylpiperazin-1-yl)methanone], the EC50 was above 5 µM.

For the compound `CNc1cc(C(F)(F)F)c(Br)nc1C(=O)NCC(C)(O)C(F)(F)F` (centres unmarked) [6-bromo-3-(methylamino)-N-(3,3,3-trifluoro-2-hydroxy-2-methylpropyl)-5-(trifluoromethyl)picolinamide], the concentration for a half-maximal effect (EC50) is above 5 µM.

For `Cn1cnc(CNC(=O)c2nc(Br)c(C(F)(F)F)nc2N)c1` [3-amino-6-bromo-N-((1-methyl-1H-imidazol-4-yl)methyl)-5-(trifluoromethyl)pyrazine-2-carboxamide], the EC50 was above 5 µM.

For the compound `Nc1nc(C(F)(F)F)c(Br)nc1C(=O)NCc1cn2ccccc2n1` [3-amino-6-bromo-N-(imidazo[1,2-a]pyridin-2-ylmethyl)-5-(trifluoromethyl)pyrazine-2-carboxamide], the EC50 is above 5 µM.

With `CC(C)CN(C)C(=O)c1nc(Br)c(C(F)(F)F)nc1N` [3-amino-6-bromo-N-isobutyl-N-methyl-5-(trifluoromethyl)pyrazine-2-carboxamide], the EC50 is above 5 µM.

Turning to `CC(O)(CNC(=O)c1nc(O)c(C(F)(F)F)cc1N)C(F)(F)F` (centres unmarked) [3-amino-6-hydroxy-N-(3,3,3-trifluoro-2-hydroxy-2-methylpropyl)-5-(trifluoromethyl)picolinamide], the EC50 is above 5 µM.

As for `Cn1ccc2ccc(-c3nc(C(=O)NCC(=O)c4ccc(F)cc4)c(N)cc3C(F)(F)F)cc21` [3-amino-N-(2-(4-fluorophenyl)-2-oxoethyl)-6-(1-methyl-1H-indol-6-yl)-5-(trifluoromethyl)picolinamide], the EC50 was above 5 µM.

As for `Nc1cc(C(F)(F)F)c(-c2ccc3c(c2)CCNC3=O)nc1C(=O)NCC(=O)c1ccc(F)cc1` [3-amino-N-(2-(4-fluorophenyl)-2-oxoethyl)-6-(1-oxo-1,2,3,4-tetrahydroisoquinolin-6-yl)-5-(trifluoromethyl)picolinamide], the EC50 is above 5 µM.

For `Cc1cc(C(N)=O)ccc1-c1nc(C(=O)NCC(=O)c2ccc(F)cc2)c(N)cc1C(F)(F)F` [3-amino-6-(4-carbamoyl-2-methylphenyl)-N-(2-(4-fluorophenyl)-2-oxoethyl)-5-(trifluoromethyl)picolinamide], the EC50 was above 5 µM.

Consider `CCN1CCC[C@H]1CNC(=O)c1nc(Br)c(C(F)(F)F)nc1N` [(S)-3-amino-6-bromo-N-((1-ethylpyrrolidin-2-yl)methyl)-5-(trifluoromethyl)pyrazine-2-carboxamide], for which the EC50 was above 5 µM.

Take `CN(Cc1ccccc1)C(=O)c1nc(Br)c(C(F)(F)F)nc1N` [3-amino-N-benzyl-6-bromo-N-methyl-5-(trifluoromethyl)pyrazine-2-carboxamide]: the EC50 is above 5 µM.

Consider `Cc1ccc(C)n1-c1cc(C(F)(F)F)c(On2nnc3cccnc32)nc1C(=O)NCC(C)(O)C(F)(F)F` (centres unmarked) [6-((3H-[1,2,3]triazolo[4,5-b]pyridin-3-yl)oxy)-3-(2,5-dimethyl-1H-pyrrol-1-yl)-N-(3,3,3-trifluoro-2-hydroxy-2-methylpropyl)-5-(trifluoromethyl)picolinamide], for which the EC50 is above 5 µM.

For `Cn1nccc1CNC(=O)c1nc(Br)c(C(F)(F)F)nc1N` [3-amino-6-bromo-N-((1-methyl-1H-pyrazol-5-yl)methyl)-5-(trifluoromethyl)pyrazine-2-carboxamide], the EC50 is above 5 µM.

Turning to `Cn1ccnc1CNC(=O)c1nc(Br)c(C(F)(F)F)nc1N` [3-amino-6-bromo-N-((1-methyl-1H-imidazol-2-yl)methyl)-5-(trifluoromethyl)pyrazine-2-carboxamide], the EC50 was above 5 µM.

`Cc1ccc(-c2nc(C(=O)NCC(=O)c3ccc(F)cc3)c(N)cc2C(F)(F)F)cc1C` [3-amino-6-(3,4-dimethylphenyl)-N-(2-(4-fluorophenyl)-2-oxoethyl)-5-(trifluoromethyl)picolinamide]: the concentration for a half-maximal effect (EC50) was above 5 µM.

For the compound `CN(C)S(=O)(=O)c1cccc(-c2nc(C(=O)NCC(=O)c3ccc(F)cc3)c(N)cc2C(F)(F)F)c1` [3-amino-6-(3-(N, N-dimethylsulfamoyl)phenyl)-N-(2-(4-fluorophenyl)-2-oxoethyl)-5-(trifluoromethyl)picolinamide], the EC50 is above 5 µM.

On to `Cn1cncc1CNC(=O)c1nc(Br)c(C(F)(F)F)nc1N` [3-amino-6-bromo-N-((1-methyl-1H-imidazol-5-yl)methyl)-5-(trifluoromethyl)pyrazine-2-carboxamide], for which the EC50 was above 5 µM.

Turning to `Nc1nc(C(F)(F)F)c(Br)nc1C(=O)NCCc1cccnc1` [3-amino-6-bromo-N-(2-(pyridin-3-yl)ethyl)-5-(trifluoromethyl)pyrazine-2-carboxamide], the EC50 was above 5 µM.

As for `CN(C)CCCOc1ccc(-c2nc(C(=O)NCC(=O)c3ccc(F)cc3)c(N)nc2C(F)(F)F)cn1` [3-amino-6-(6-(3-(dimethylamino)propoxy)pyridin-3-yl)-N-(2-(4-fluorophenyl)-2-oxoethyl)-5-(trifluoromethyl)pyrazine-2-carboxamide], the EC50 is above 5 µM.

Turning to `Nc1nc(C(F)(F)F)c(Br)nc1C(=O)NCCc1ccncc1` [3-amino-6-bromo-N-(2-(pyridin-4-yl)ethyl)-5-(trifluoromethyl)pyrazine-2-carboxamide], the EC50 is above 5 µM.

Regarding `CN1CCN(C(=O)c2nc(Br)c(C(F)(F)F)nc2N)CC1c1ccccc1` (centres unmarked) [(3-amino-6-bromo-5-(trifluoromethyl)pyrazin-2-yl)(4-methyl-3-phenylpiperazin-1-yl)methanone], the concentration giving a half-maximal response (EC50) is above 5 µM.

Regarding `Cn1ccc(CNC(=O)c2nc(Br)c(C(F)(F)F)nc2N)n1` [3-amino-6-bromo-N-((1-methyl-1H-pyrazol-3-yl)methyl)-5-(trifluoromethyl)pyrazine-2-carboxamide], the EC50 is above 5 µM.

Take `Nc1nc(C(F)(F)F)c(Br)nc1C(=O)NCc1ncn2ccccc12` [3-amino-6-bromo-N-(imidazo[1,5-a]pyridin-1-ylmethyl)-5-(trifluoromethyl)pyrazine-2-carboxamide]: the EC50 was above 5 µM.

For the origin of these results see US10117858B2, “Pyridine and pyrazine derivative for the treatment of CF” (Novartis AG, priority 2010, dated 2018).
